According to patent US7012060B1, “TNF receptor and steroid hormone in a combined therapy” (priority 1995, dated 2006):
Marks after values point to notes of the source that are not given here.

System: septic shock induced by LPS + D-Galactosamine, in mice
Experiment: LPS+D-Galactosamine-induced septic shock model
Format: in vivo, SPF female BALB/c inbred mice
Procedure: The experiments were carried out in vivo on mice. The septic shock was induced by an i.p. administration of a mixture of LPS (0.1 μg/mouse) and D-Galactosamine (18 mg/mouse).
The treatment schedule for r-hTBP-1 based on repeated administrations (the total dose was divided into 4 administrations given at time 0 and […] and 24 hours after), was adopted. CHO r-hTBP-1 was tested, alone or in combination with DHEA, at dose levels of 62.5 and 125 μg/mouse (total dose).
DHEA was tested both in a single administration injected i.p. one hour before and contemporaneously to the septic shock-inducing agent at doses encompassed between 100 and 2.000 μg/mouse and in repeated treatment with the total dose (250 μg/mouse) divided into 4 injections given within 24 hours.
The above treatment schedules of DHEA (doses from 250 to 1,500 μl g/mouse) were followed also in combination with r-hTBP-1 which was tested at the total dose varying from 62.5 to 125 μg/mouse (divided into 4 administrations).
SPF female BALB/c inbred mice, 6–8 weeks (about 18–20 g b.w.), from Charles River were used throughout the whole study after an acclimatisation period of at least 7 days.
Unless otherwise specified, in all the experiments the mice were randomly divided into groups of 10 animals each.
Both substances were dissolved in saline. The mixture of LPS (0.1 μg/mouse) and D-Galactosamine (18 mg/mouse) was prepared by mixing equal volumes of these substances. The mixture was subsequently injected to animals by the i.p. route. This dose was selected under precious experiments as that inducing around 80% mortality calculated as the number of dead vs. total number of mice for each croup. The lethality was monitored after 24, 48, 72 and 96 hours and at day 7 post-treatment.
The drug was diluted in saline and injected by repeated administrations, i.e. i.v. immediately before the inoculum of LPS plus D-Galactosamine and s.c. 3, 6 and 24 hours later.
The effects of DHEA, alone or in combination with r-hTBP-1, were assayed after single i.p. administrations at different times in respect to LPS+D-Galactosamine injection; in particular, it was administered 1 hour before and contemporaneously to the septic shock-inducing agent.
A repeated treatment schedule was also investigated in which DHEA was administered at time 0 (septic shock induction) and 3, 6 and 24 hours later. DHEA was initially vehicled in a mixture of 2.5% alcohol and 10% rabbit serum in saline. To improve the solubility and standardise the preparation, the steroid was successively dispersed in a mixture of 2.5% alcohol and 10% phospholipid emulsion in saline.
The primary end point was the survival rate at 48 hours after induction of septic shock. The comparison of the effects of each treatment group vs. controls and among treatment groups was effected by Fisher's exact test, one-tailed. The same comparison was also performed at the other time points. The results in each treatment group were expressed as percent survival.
In all the experiments, percent survival values were calculated using the survival Tables for the follow up studies (Armitage P. Cap. XIV. Tavole di sopravvivenza in Statistica Medica, Feltrinelli, Milano). The χ^2-test was applied to each observation time by comparing the DHEA+r-hTBP-1 groups to the other groups.

## C[C@]12CC[C@H](O)CC1=CC[C@@H]1[C@@H]2CC[C@]2(C)C(=O)CC[C@@H]12 [DHEA, Dehydroepiandrosterone]
DHEA 1.000 μg contemporaneously with LPS+D-Gal vs same dose 1 hour before
  protection: higher protection
DHEA 1.500 μg/mouse alone, 1 hour before
  survival rate: 40%
DHEA 2.000 μg/mouse, 1 hour before LPS+D-Galactosamine, all time points
  protective effects: complete protection
DHEA 100 μg/mouse i.p. 1 hour before LPS + D-Gal, saline 10% rabbit serum, 24 hrs, 1st exp
  % cumulative survival: 20%
DHEA 100 μg/mouse i.p. 1 hour before LPS + D-Gal, saline 10% rabbit serum, 48 hrs, 1st exp
  % cumulative survival: 20%
DHEA 100 μg/mouse i.p. 1 hour before LPS + D-Gal, saline 10% rabbit serum, 72 hrs, 1st exp
  % cumulative survival: 20%
DHEA 100 μg/mouse i.p. 1 hour before LPS + D-Gal, saline 10% rabbit serum, 96 hrs, 1st exp
  % cumulative survival: 20%
DHEA 250 μg/mouse alone at time 0, rabbit serum vehicle
  protection (survival): 30%
DHEA 250 μg/mouse divided into 4 inocula at 0, 3, 6 and 24 hours (group E), 48 hours
  survival rate: 40%
DHEA 250 μg/mouse i.p. at time 0, saline 10% rabbit serum, 24 hrs, 2nd exp.
  % cumulative survival: 20%
DHEA 250 μg/mouse i.p. at time 0, saline 10% rabbit serum, 48 hrs, 2nd exp.
  % cumulative survival: 20%
DHEA 250 μg/mouse i.p. at time 0, saline 10% rabbit serum, 72 hrs, 2nd exp.
  % cumulative survival: 20%
DHEA 250 μg/mouse i.p. at time 0, saline 10% rabbit serum, 96 hrs, 2nd exp.
  % cumulative survival: 20%
DHEA 250 μg/mouse single injection (group D), 48 hours
  survival rate: 30%
DHEA 500 μg/mouse i.p. 1 hour before LPS + D-Gal, saline 10% rabbit serum, 24 hrs, 1st exp
  % cumulative survival: 10%
DHEA 500 μg/mouse i.p. 1 hour before LPS + D-Gal, saline 10% rabbit serum, 48 hrs, 1st exp
  % cumulative survival: 10%
DHEA 500 μg/mouse i.p. 1 hour before LPS + D-Gal, saline 10% rabbit serum, 72 hrs, 1st exp
  % cumulative survival: 10%
DHEA 500 μg/mouse i.p. 1 hour before LPS + D-Gal, saline 10% rabbit serum, 96 hrs, 1st exp
  % cumulative survival: 10%
DHEA 500 μg/mouse i.p. at time 0, saline 10% rabbit serum, 24 hrs, 1st exp.
  % cumulative survival: 50%
DHEA 500 μg/mouse i.p. at time 0, saline 10% rabbit serum, 24 hrs, 2nd exp.
  % cumulative survival: 30%
DHEA 500 μg/mouse i.p. at time 0, saline 10% rabbit serum, 48 hrs, 1st exp.
  % cumulative survival: 40%
DHEA 500 μg/mouse i.p. at time 0, saline 10% rabbit serum, 48 hrs, 2nd exp.
  % cumulative survival: 30%
DHEA 500 μg/mouse i.p. at time 0, saline 10% rabbit serum, 72 hrs, 1st exp.
  % cumulative survival: 30%
DHEA 500 μg/mouse i.p. at time 0, saline 10% rabbit serum, 72 hrs, 2nd exp.
  % cumulative survival: 30%
DHEA 500 μg/mouse i.p. at time 0, saline 10% rabbit serum, 96 hrs, 1st exp.
  % cumulative survival: 30%
DHEA 500 μg/mouse i.p. at time 0, saline 10% rabbit serum, 96 hrs, 2nd exp.
  % cumulative survival: 30%
DHEA 750 μg/mouse i.p. at time 0, saline 10% rabbit serum, 24 hrs, 1st exp.
  % cumulative survival: 40%
DHEA 750 μg/mouse i.p. at time 0, saline 10% rabbit serum, 24 hrs, 2nd exp.
  % cumulative survival: 50%
DHEA 750 μg/mouse i.p. at time 0, saline 10% rabbit serum, 48 hrs, 1st exp.
  % cumulative survival: 40%
DHEA 750 μg/mouse i.p. at time 0, saline 10% rabbit serum, 48 hrs, 2nd exp.
  % cumulative survival: 50%
DHEA 750 μg/mouse i.p. at time 0, saline 10% rabbit serum, 72 hrs, 1st exp.
  % cumulative survival: 40%
DHEA 750 μg/mouse i.p. at time 0, saline 10% rabbit serum, 72 hrs, 2nd exp.
  % cumulative survival: 50%
DHEA 750 μg/mouse i.p. at time 0, saline 10% rabbit serum, 96 hrs, 1st exp.
  % cumulative survival: 40%
DHEA 750 μg/mouse i.p. at time 0, saline 10% rabbit serum, 96 hrs, 2nd exp.
  % cumulative survival: 50%
DHEA 1000 μg/mouse i.p. 1 hour before LPS + D-Gal, saline 10% rabbit serum, 24 hrs, 2nd exp
  % cumulative survival: 20%
DHEA 1000 μg/mouse i.p. 1 hour before LPS + D-Gal, saline 10% rabbit serum, 48 hrs, 2nd exp
  % cumulative survival: 20%
DHEA 1000 μg/mouse i.p. 1 hour before LPS + D-Gal, saline 10% rabbit serum, 72 hrs, 2nd exp
  % cumulative survival: 10%
DHEA 1000 μg/mouse i.p. 1 hour before LPS + D-Gal, saline 10% rabbit serum, 96 hrs, 2nd exp
  % cumulative survival: 0%
DHEA 1000 μg/mouse i.p. at time 0, saline 10% rabbit serum, 24 hrs, 1st exp.
  % cumulative survival: 80^a %
DHEA 1000 μg/mouse i.p. at time 0, saline 10% rabbit serum, 48 hrs, 1st exp.
  % cumulative survival: 60%
DHEA 1000 μg/mouse i.p. at time 0, saline 10% rabbit serum, 72 hrs, 1st exp.
  % cumulative survival: 60%
DHEA 1000 μg/mouse i.p. at time 0, saline 10% rabbit serum, 96 hrs, 1st exp.
  % cumulative survival: 60%
DHEA 1500 μg/mouse i.p. 1 hour before LPS + D-Gal, saline 10% rabbit serum, 24 hrs, 2nd exp
  % cumulative survival: 70^a %
DHEA 1500 μg/mouse i.p. 1 hour before LPS + D-Gal, saline 10% rabbit serum, 48 hrs, 2nd exp
  % cumulative survival: 70^a %
DHEA 1500 μg/mouse i.p. 1 hour before LPS + D-Gal, saline 10% rabbit serum, 72 hrs, 2nd exp
  % cumulative survival: 50%
